Assay results from BindingDB's records for doi:10.1021/acs.jmedchem.6b01088 (Bristol Myers Squibb, 2016).

Assay: Inhibition of LCK in human peripheral T cells assessed as suppression of TCR-dependant cell proliferation

## Cc1c(-c2c(F)cc(C(N)=O)c3[nH]c4c(c23)CC[C@H](C(C)(C)O)C4)cccc1-n1c(=O)c2cccc(F)c2n(C)c1=O
  IC50: 3.8 µM
